Reference: patent publication US8802597B2, “Herbicidal pyrimidines” (E I du Pont de Nemours and Company, priority 2003, dated 2014)
Where two headings read alike, the source gives them in different places.

Tests used:
Test in all cases: Test C pre/postemergence
Type in all cases: in vivo
[1] = tested on: eastern black nightshade (Solanum ptycanthum); settings: Solanum, pre-emergence, Preemergence, scale 0 to 100, 0 no effect, 100 complete control, read-out: Plant response rating, Nightshade
Outline: (§1)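 Greenhouse herbicide screen, visual readout. Compound in solvent/surfactant applied preemergence at planting or postemergence to 1- to 4-leaf plants; assessed at 12–14 days on a 0–100 control scale.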

[2] = tested on: kochia (Kochia scoparia); settings: Bassia scoparia; for pest or weed control at 31 g/ha: 31 g ai/ha; for pest or weed control at 62 g/ha: 62 g ai/ha; for pest or weed control at 125 g/ha: 125 g ai/ha
Outline: as §1

[3] = tested on: corn (Zea mays); settings: Zea mays; for Corn plant response rating (crop injury, 0 = no effect, 100 = complete kill) at 31 g/ha: 31 g ai/ha; for Corn plant response rating (crop injury, 0 = no effect, 100 = complete kill) at 62 g/ha: 62 g ai/ha; for Corn plant response rating (crop injury, 0 = no effect, 100 = complete kill) at 125 g/ha: 125 g ai/ha
Outline: as §1

[4] = tested on: crabgrass (Digitaria sanguinalis); settings: Digitaria sanguinalis; for pest or weed control at 31 g/ha: 31 g ai/ha; for pest or weed control at 62 g/ha: 62 g ai/ha; for pest or weed control at 125 g/ha: 125 g ai/ha
Outline: as §1

[5] = tested on: johnsongrass (Sorghum halepense); settings: Sorghum halepense; for pest or weed control at 31 g/ha: 31 g ai/ha; for pest or weed control at 62 g/ha: 62 g ai/ha; for pest or weed control at 125 g/ha: 125 g ai/ha
Outline: as §1

[6] = tested on: Surinam grass (Brachiaria decumbens); settings: Urochloa decumbens; for pest or weed control at 31 g/ha: 31 g ai/ha; for pest or weed control at 62 g/ha: 62 g ai/ha
Outline: as §1

[7] = post-emergence, Postemergence, read-out: Plant response rating (scale of 0 to 100), Kochia
[8] = pre-emergence, Preemergence, scale 0 to 100, 0 no effect, 100 complete control, read-out: Plant response rating, Kochia
[9] = post-emergence, Postemergence, read-out: Plant response rating (scale of 0 to 100), Corn
[10] = pre-emergence, Preemergence, scale 0 to 100, 0 no effect, 100 complete control, read-out: Plant response rating, Corn
[11] = post-emergence, Postemergence, read-out: Plant response rating (scale of 0 to 100), Crabgrass
[12] = pre-emergence, Preemergence, scale 0 to 100, 0 no effect, 100 complete control, read-out: Plant response rating, Crabgrass
[13] = post-emergence, Postemergence, read-out: Plant response rating (scale of 0 to 100), Johnsongrass
[14] = pre-emergence, Preemergence, scale 0 to 100, 0 no effect, 100 complete control, read-out: Plant response rating, Johnsongrass
[15] = post-emergence, Postemergence, read-out: Plant response rating (scale of 0 to 100), Surinam Grass
[16] = pre-emergence, Preemergence, scale 0 to 100, 0 no effect, 100 complete control, read-out: Plant response rating, Surinam Grass

Nc1nc(C2CC2)nc(C(=O)OCc2ccccc2)c1Cl [Compound 78, phenylmethyl 6-amino-5-chloro-2-cyclopropyl-4-pyrimidinecarboxylate]
pest or weed control at 16 g/ha ([1]; 16 g ai/ha): 0%
pest or weed control at 31 g/ha ([1]; 31 g ai/ha): 30%
pest or weed control at 62 g/ha ([1]; 62 g ai/ha): 60%
pest or weed control at 31 g/ha [2, 7]: 90%
pest or weed control at 62 g/ha [2, 7]: 90%
pest or weed control at 125 g/ha ([2]; post-emergence, Postemergence, scale 0 to 100 (0 no effect, 100 complete control), read-out: Kochia plant response rating): 95%
pest or weed control at 250 g/ha ([2]; post-emergence, Postemergence, 250 g ai/ha, scale 0 to 100, read-out: Plant response rating, Kochia): 95%
pest or weed control at 16 g/ha ([2]; pre-emergence, Preemergence, 16 g ai/ha, scale 0 to 100, 0 no effect, 100 complete control, read-out: Plant response rating, Kochia): 70%
pest or weed control at 31 g/ha [2, 8]: 80%
pest or weed control at 62 g/ha [2, 8]: 100%
pest or weed control at 125 g/ha ([2]; pre-emergence, Preemergence, scale 0 to 100, read-out: Plant response rating, Kochia): 100%
Corn plant response rating (crop injury, 0 = no effect, 100 = complete kill) at 31 g/ha [3, 9]: 40%
Corn plant response rating (crop injury, 0 = no effect, 100 = complete kill) at 62 g/ha [3, 9]: 40%
Corn plant response rating (crop injury, 0 = no effect, 100 = complete kill) at 125 g/ha ([3]; post-emergence, Postemergence, scale 0 to 100 (0 no effect, 100 complete control), read-out: Corn plant response rating): 40%
Corn plant response rating (crop injury, 0 = no effect, 100 = complete kill) at 250 g/ha ([3]; post-emergence, Postemergence, 250 g ai/ha, scale 0 to 100): 40%
Corn plant response rating (crop injury, 0 = no effect, 100 = complete kill) at 16 g/ha ([3]; pre-emergence, Preemergence, 16 g ai/ha, scale 0 to 100, 0 no effect, 100 complete control, read-out: Plant response rating, Corn): 0%
Corn plant response rating (crop injury, 0 = no effect, 100 = complete kill) at 31 g/ha [3, 10]: 0%
Corn plant response rating (crop injury, 0 = no effect, 100 = complete kill) at 62 g/ha [3, 10]: 20%
Corn plant response rating (crop injury, 0 = no effect, 100 = complete kill) at 125 g/ha ([3]; pre-emergence, Preemergence, scale 0 to 100, read-out: Plant response rating, Corn): 40%
pest or weed control at 31 g/ha [4, 11]: 55%
pest or weed control at 62 g/ha [4, 11]: 90%
pest or weed control at 125 g/ha ([4]; post-emergence, Postemergence, scale 0 to 100 (0 no effect, 100 complete control), read-out: Crabgrass plant response rating): 90%
pest or weed control at 250 g/ha ([4]; post-emergence, Postemergence, 250 g ai/ha, scale 0 to 100, read-out: Plant response rating, Crabgrass): 90%
pest or weed control at 16 g/ha ([4]; pre-emergence, Preemergence, 16 g ai/ha, scale 0 to 100, 0 no effect, 100 complete control, read-out: Plant response rating, Crabgrass): 0%
pest or weed control at 31 g/ha [4, 12]: 5%
pest or weed control at 62 g/ha [4, 12]: 40%
pest or weed control at 125 g/ha ([4]; pre-emergence, Preemergence, scale 0 to 100, read-out: Plant response rating, Crabgrass): 45%
pest or weed control at 31 g/ha [5, 13]: 10%
pest or weed control at 62 g/ha [5, 13]: 10%
pest or weed control at 125 g/ha ([5]; post-emergence, Postemergence, scale 0 to 100 (0 no effect, 100 complete control), read-out: Johnsongrass plant response rating): 20%
pest or weed control at 250 g/ha ([5]; post-emergence, Postemergence, 250 g ai/ha, scale 0 to 100, read-out: Plant response rating, Johnsongrass): 40%
pest or weed control at 16 g/ha ([5]; pre-emergence, Preemergence, 16 g ai/ha, scale 0 to 100, 0 no effect, 100 complete control, read-out: Plant response rating, Johnsongrass): 0%
pest or weed control at 31 g/ha [5, 14]: 10%
pest or weed control at 62 g/ha [5, 14]: 20%
pest or weed control at 125 g/ha ([5]; pre-emergence, Preemergence, scale 0 to 100, read-out: Plant response rating, Johnsongrass): 50%
pest or weed control at 125 g/ha ([6]; post-emergence, Postemergence, 125 g ai/ha, scale 0 to 100 (0 no effect, 100 complete control), read-out: Surinam Grass plant response rating): 55%
pest or weed control at 31 g/ha [6, 15]: 50%
pest or weed control at 62 g/ha [6, 15]: 55%
pest or weed control at 250 g/ha ([6]; post-emergence, Postemergence, 250 g ai/ha, scale 0 to 100, read-out: Plant response rating, Surinam Grass): 90%
pest or weed control at 16 g/ha ([6]; pre-emergence, Preemergence, 16 g ai/ha, scale 0 to 100, 0 no effect, 100 complete control, read-out: Plant response rating, Surinam Grass): 0%
pest or weed control at 31 g/ha [6, 16]: 0%
pest or weed control at 62 g/ha [6, 16]: 0%
